In PMC2662459, “Developmental Toxicity of Ochratoxin A in Rat Embryo Midbrain Micromass Cultures” (International Journal of Molecular Sciences, 2008):
Converted amounts (≈) assume the structure as drawn. Counter-ions that a name gives are not always drawn. Like-named read-outs stand apart in the source and are kept apart here.

Columns and labels:
[1] = tested on: rat embryo midbrain micromass cultures; type: cell-based
Protocol: (§1) The values of drug concentration, which inhibited cells viability by 50% (IC50) and reduced differentiation by 50% (ID50) when compared to unexposed control cells, were calculated according to Hill’s equation (sigmoidal model of concentration-response curve). Statistically significant differences between mean values obtained in immunoenzymatic analysis were determined based on analysis of variance (ANOVA) followed by Tukey – Kramer post-hoc test. Values of P < 0.05 were considered as statistically significant. All calculations were done using LSW Data Analysis Toolbox ver. 1.1.1. (MDL® Information Systems, Inc.) in Microsoft Excel 2000 spreadsheet and Kyplot software (Koichi Yoshioka, version 2.0 beta 4). In order to classify embryotoxic potential the mean inhibition concentrations for differentiation (ID50) of test chemical was used and the biostatistically based prediction model (PM) was applied. It is based on the linear discriminate analysis of three functions: function I: 6.65 × log (ID50)–9.49; function II: 6.16 × log (ID50)–8.29; function III: –1.31 × log (ID50)–1.42. The function providing the highest value was used to determine the class of embryotoxicity (class 1 – non-embryotoxic, class 2 – weakly embryotoxic, class 3 – strongly embryotoxic).

[2] = tested on: MAP2 expression (neurons in late stage of development); experiment: Differentiation, immunoenzymatic determination of MAP2 expression; type: cell-based, rat; settings: for Inhibition of differentiation, ID50: Expression of MAP2 (OD, 450 nm): five days exposure, mean±SD from 3 independent experiments
Protocol: (§2) This study was carried out according to compliance with bioethical principles. Wistar albino rats were housed under standard laboratory condition of lighting (12 h dark/12 h light), temperature (20 ± 2 °C), and relative humidity (50 – 60%) with free access to commercial feed (Murigan) and tap water. Animals (10–12 week old) were mated overnight and the appearance of a vaginal plug on the next morning was considered as day one of pregnancy. Rat embryos were collected on day 13 of gestation. Procedures were followed essentially as described in INVITTOX Protocol No. 114 [23].
(§3) Tissues were pooled from a number of embryos, washed and incubated for 20 min at 37 °C in sequence in Earle’s balanced salt solution calcium and magnesium-free (CMF, GIBCO), and 1% trypsin (GIBCO) in CMF. Then the tissues were washed in CMF and culture medium (Ham’s F-12 nutrient mixture: foetal bovine serum: L-glutamine: penicillin/streptomycin - 88:10:1:1 v/v – all materials were from GIBCO). A single cell suspension was ensured by mechanical dissociation followed by passing the suspension through sterile 10 μm nylon mesh. Viable cells density was assessed by trypan blue exclusion assay using Bürker’s haemocytometer.
(§4) High-cell-density cultures were set up carefully as a 5–10 μL drop in the centre of each well of 96-well fibronectin coated microplate (BECTON DICKINSON), so that number of cells /well was 5 × 10^4. After 2 h incubation (37°C, 5% CO2) the cells were exposed to different concentrations of tested compounds and incubated five days. […]
(§5) To indicate the target cells damaged, immunofluorescent (IF) and immunoenzymatic (IE) staining was performed. […] IF staining fluorescence was examined using a fluorescent microscope (λ = 490 nm). In IE staining, a substrate (3,3’,5,5’-tetramethylbenzidine, SIGMA) was added (100 μL/well) and reaction was evaluated for 30 min at room temperature. […] The expression level of particular proteins was determined by measuring optical density at 450 nm. […]

[3] = tested on: βIII tubulin expression (neurons in early stage of development); experiment: Differentiation, immunoenzymatic determination of βIII-tubulin expression; type: cell-based, rat; settings: for Inhibition of differentiation, ID50: Expression of βIII tubulin (OD, 450 nm): five days exposure, mean±SD from 3 independent experiments
Protocol: as §2, §3, §4, §5

[4] = tested on: GFAP expression (astrocytes); experiment: Differentiation, immunoenzymatic determination of GFAP expression; type: cell-based, rat; settings: for Inhibition of differentiation, ID50: Expression of GFAP (OD, 450 nm): five days exposure, mean±SD from 3 independent experiments
Protocol: as §2, §3, §4, §5

in vitro = type: cell-based; settings: Wistar albino, rat
Protocol: as §2
as §3, with “A single cell suspension was ensured by mechanical dissociation followed by passing the suspension through sterile 10 μm nylon mesh.” left out, “haemocytometer. […]” for “haemocytometer.”
Cytotoxicity was quantified using neutral red uptake test (NRU). […] The eluted stain intensity (optical density, OD) was measured at 540 nm following at least 2 h incubation. Surviving cell number was directly related to the absorbance of the eluted stain. […]

[5] = tested on: neurons and astrocytes of ventral mesencephalon; settings: protein and DNA synthesis, rat embryo brain aged 15–16 days, cited from earlier work
[6] = tested on: neurons and astrocytes of cerebellum; settings: protein and DNA synthesis, rat embryo brain aged 15–16 days, cited from earlier work
[7] = tested on: rat embryo midbrain micromass cultures (neurospheres); experiment: Differentiation, computerised image analysis of haematoxylin stained neurospheres; type: cell-based
Protocol: as §2, §3
High-cell-density cultures were set up carefully as a 5–10 μL drop in the centre of each well of 96-well fibronectin coated microplate (BECTON DICKINSON), so that number of cells /well was 5 × 10^4. After 2 h incubation (37°C, 5% CO2) the cells were exposed to different concentrations of tested compounds and incubated five days. Then dual assessment i.e. cytotoxicity and an impact of tested compound on cells differentiation (embryotoxicity) were done in the same cultures.
After removing the eluted solution, the cells were fixed in 10% formaldehyde for 20 min and stained (approximately 10 s) with Gill’s haematoxylin. Morphometric analysis was performed on digitised images of cells taken with Nikon SMZ stereoscopic microscope linked to Panasonic CCD BP-KR 222E colour camera. The number of neurospheres (containing differentiated neural cells) was counted and their total and individual area was measured using computer image analysis software (LUCIA Measurement System).
as §1, with “It is based on the linear discriminate analysis of three functions: function I: 6.65 × log (ID50)–9.49; function II: 6.16 × log (ID50)–8.29; function III: –1.31 × log (ID50)–1.42.” left out

[8] = tested on: foetuses of pregnant rats; settings: single oral dose; cited from earlier work
mice offspring brain = settings: three month mice offspring exposed prenatally; cited from earlier work
[9] = five days exposure, computerised image analysis, mean±SD from 3 independent experiments

O=c1[nH]cc(F)c(=O)[nH]1 [5-FU, 5-fluorouracil, reference compound]
Class of embryotoxicity (prediction model) ([1]; rat): class 3 | Inhibition of differentiation, ID50: Expression of MAP2 (OD, 450 nm) [2]: 0.16 ± 0.010 µg/mL | Inhibition of differentiation, ID50: Expression of βIII tubulin (OD, 450 nm) [3]: 0.14 ± 0.010 µg/mL | Inhibition of differentiation, ID50: Expression of GFAP (OD, 450 nm) [4]: 0.18 ± 0.012 µg/mL | IC50 (in vitro): 0.15 ± 0.01 µg/mL (≈ 1.15 µM)

C[C@@H]1Cc2c(Cl)cc(C(=O)N[C@@H](Cc3ccccc3)C(=O)O)c(O)c2C(=O)O1 [OTA, ochratoxin A]
Median inhibition concentration, astrocytes ventral mesencephalon [5]: ~16.2 ± 2.15 µg/mL | Median inhibition concentration, neurons ventral mesencephalon [5]: ~5.6 ± 0.40 µg/mL | IC50 ([5]; read-out: Median inhibition concentration, astrocytes ventral mesencephalon): ~40 µM | IC50 ([5]; read-out: Median inhibition concentration, neurons ventral mesencephalon): ~14 µM | Median inhibition concentration, astrocytes cerebellum [6]: ~27.9 ± 3.6 µg/mL | Median inhibition concentration, neurons cerebellum [6]: ~9.7 ± 2.8 µg/mL | IC50 ([6]; read-out: Median inhibition concentration, astrocytes cerebellum): ~69 µM | IC50 ([6]; read-out: Median inhibition concentration, neurons cerebellum): ~24 µM | IC50/ID50 ratio, all endpoints ([1]; all differentiation endpoints): < 2 | ID50, all endpoints of differentiation ([1]; for all endpoints): < 10 µg/mL | Class of embryotoxicity (prediction model) ([1]; function with highest value from ID50): class 3 | IC50/ID50 ratio: MAP2 ([2]; NRU IC50 over ID50): 0.6 | Inhibition of differentiation, ID50: Expression of MAP2 (OD, 450 nm) [2]: 3.90 ± 0.350 µg/mL | IC50/ID50 ratio: βIII tubulin ([3]; NRU IC50 over ID50): 0.5 | Inhibition of differentiation, ID50: Expression of βIII tubulin (OD, 450 nm) [3]: 4.84 ± 0.581 µg/mL | IC50/ID50 ratio: Number of neurospheres ([7]; NRU IC50 over ID50): 0.7 | IC50/ID50 ratio: Particular area of neurospheres ([7]; NRU IC50 over ID50): 1.9 | IC50/ID50 ratio: Total area of neurospheres ([7]; NRU IC50 over ID50): 1.1 | Inhibition of differentiation, ID50: Number of neurospheres [7, 9]: 3.40 ± 1.100 µg/mL | Inhibition of differentiation, ID50: Particular area of neurospheres [7, 9]: 1.29 ± 0.923 µg/mL | Inhibition of differentiation, ID50: Total area of neurospheres [7, 9]: 2.19 ± 0.245 µg/mL | Differentiated cells after exposure to the two highest concentrations ([7]; two highest concentrations, 5 days, haematoxylin staining): no differentiated cells were observed | IC50/ID50 ratio: GFAP ([4]; NRU IC50 over ID50): 0.5 | Inhibition of differentiation, ID50: Expression of GFAP (OD, 450 nm) [4]: 4.87 ± 0.351 µg/mL | IC50 at 5 days (in vitro; five days exposure, mean±SD from 3 independent experiments, read-out: Cytotoxicity IC50 (Viability, Neutral Red OD, 540 nm)): 2.52 ± 0.062 µg/mL (≈ 6.24 µM) | Minimum effective teratogenic dose [8]: 2.75 mg/kg b.w. | Tissue weight and DNA content, cerebral hemispheres (mice offspring brain): 80 % of control | Tissue weight and DNA content, remainder of the brain (mice offspring brain): 90 % of control

CC1(C)S[C@@H]2[C@H](NC(=O)Cc3ccccc3)C(=O)N2[C@H]1C(=O)O [Pen-G, Penicillin G sodium salt, reference compound]
Embryotoxicity at fixed concentration [1]: not embryotoxic | Class of embryotoxicity (prediction model) ([1]; rat): class 1
